The record followed here is patent US20200216812A1, “IN VIVO METHOD FOR DIFFERENTIATING HUMAN PLURIPOTENT STEM CELLS INTO ATRIAL CARDIOMYOCYTES” (Ncardia B.V., priority 2016, published 2020).

What all share (assay type): cell-based, human
The subject of one assay is COUP-TFII. Kind of assay: Qualitative immunoreactivity signal for COUP-TFII in hiPSC-derived cardiomyocytes (co-staining with alpha actinin). The arrangement: key: +++: Strongest immunoreactivity signal (i.e. fluorescence staining); ++: Moderate immunoreactivity signal (i.e. fluorescence staining); +: Lowest immunoreactivity signal (i.e. fluorescence staining); +/−: Marginal immunoreactivity signal (i.e. fluorescence staining) (i.e. very low signal, not consistently observed in all cells).; −: No immunoreactivity signal (i.e. fluorescence staining). On the procedure: (§1) The purpose of this experiment was to determine the influence of retinoic acid (RA) (i.e. all-trans retinoic acid was used in the experiments below) on differentiation of hiPSC into atrial cardiomyocytes. Specifically, the influence of all-trans retinoic acid concentration (1 microM vs 10 microM) as well as the effect of timing/duration of retinoic acid application (i.e. d2-4 vs d3-d4 vs d2-18) were tested according to the following experimental scheme:
(§2) The aqueous media consisted of the following composition: 46.5% IMDM (Gibco 21056), 0.25% Bovostar BSA, 46.5% Ham's F12 with Glutamax, 2 mM Glutamax, 450 nM alphaMTG, 0.05 mg/ml ascorbic acid, 0.5% 5000 U/ml Pen/Strep (Gibco 12070), 0.01% 1000* Trace elements mix B (Cellgro 99-176-CL), 0.1% 1000* Trace elements mix C (Cellgro 99-176-CL). The aqueous media was used in all four treatment groups, except that RA was added at different concentrations depending on the given treatment group, i.e. 10 microM for treatment group 1 and 2 and 1 microM for treatment groups 3 and 4.
(§3) For all treatment groups, CHIR-99021 was used at a concentration of 5 microM.
(§4) For all experimental groups, a combination of 5 microM of XAV-939 and 0.25 microM of IWP-L6 was used. Plating of hiPSC hiPSC were seeded in 12-well plates at density of 60.000 cells per well or a split ratio that was empirically determined to give 30-80% confluence after 4 days. Culture media was replaced after 4 days, in each treatment group, with a differentiation media as described in Table 1.
(§5) Step a): The hiPSC were contacted with 5 microM of CHIR-99021 for a period of 48 hours. At the term of step a), the media was refreshed, i.e. replaced by a media devoid of CHIR-99021 and comprising 5 microM of XAV-939 and 0.25 microM of IWP-L6.
(§6) Step b): Immediately after having refreshed the medium of step a), i.e. immediately after the 48 hours of step a) (which correspond to 2 days after having initiated step a), the cells were contacted with 5 microM of XAV-939 and 0.25 microM of IWP-L6 as well as with 10 microM of all trans retinoic acid. The cells were cultured in this media for 48 hours. At the term of step b), the media was refreshed with a media but devoid of CHIR-99021, XAV-939, and IWP-L6. The hiPSC-derived cardiomyocytes were further cultured until 14 days after initiating step a), after which they were harvested and submitted to immunohistochemical procedure for assessment of atrial phenotype (see example 3 below).
(§7) Step b): Immediately after having refreshed the medium of step a), i.e. immediately after the 48 hours of step a), the cells were contacted with 5 microM of XAV-939 and 0.25 microM of IWP-L6. At 24 hours after initiating step b) (which corresponds to 3 days after having initiated step a), 10 microM of retinoic acid was added to the media of step b). […]

The next assay has as its system hiPSC. Kind of assay: Differentiation of hiPSC into cardiomyocytes having an atrial phenotype (phenotype analysis, text summary). The settings on record: for differentiation of hiPSC into atrial cardiomyocytes (immunoreactive signal for COUP-TF1 and/or COUP-TF1): 1 microM; for differentiation of hiPSC into cardiomyocytes having an atrial phenotype (immunoreactive signal for COUP-TF1 and/or COUP-TF1): 10 microM. On the procedure: as §1, §5, §6
as §6, with “step” for “step a) (which correspond to 2 days after having initiated step”, “of IWP-L6. At 24 hours after initiating step b) (which corresponds to 3 days after having initiated step a),” for “of IWP-L6 as well as with”, “of” for “of all trans”, “retinoic acid was added to the media of step b).” for “retinoic acid.”, “for 24” for “for 48”
Step b): Immediately after having refreshed the medium of step a), i.e. immediately after the 48 hours of step a), the cells were contacted with 5 microM of XAV-939 and 0.25 microM of IWP-L6. At 24 hours after initiating step b) (which corresponds to 3 days after having initiated step a), 1 microM of retinoic acid was added to the media of step b). The cells were cultured in this media for 24 hours. At the term of step b), the media was refreshed with a media but devoid of CHIR-99021, XAV-939, and IWP-L6. […]

The next assay concerns COUP-TFI. The experiment in a line: Qualitative immunoreactivity signal for COUP-TFI in hiPSC-derived cardiomyocytes (co-staining with alpha actinin). Set-up: key: +++: Strongest immunoreactivity signal (i.e. fluorescence staining); ++: Moderate immunoreactivity signal (i.e. fluorescence staining); +: Lowest immunoreactivity signal (i.e. fluorescence staining); +/−: Marginal immunoreactivity signal (i.e. fluorescence staining) (i.e. very low signal, not consistently observed in all cells).; −: No immunoreactivity signal (i.e. fluorescence staining). How it is done:
as §1, §2, §3, §4, §5, §6, §7

[1] abbreviates: treatment group 1: 10 microM RA/d 2-4.
Setting [2] is: treatment group 2: 10 microM RA/d 3-4.
[3] abbreviates: treatment group 3: 1 microM RA/d 3-4.
[4] abbreviates: treatment group 4: 1 microM RA/d 2-14 + 4.

As to `CC1=C(/C=C/C(C)=C/C=C/C(C)=C/C(=O)O)C(C)(C)CCC1` [RA, all-trans retinoic acid], the “intensity of the immunoreactivity signal for COUP-TFII” value is on record as “+++” in the assay on COUP-TFII (setting [1]), “++” in the assay with COUP-TFII (setting [2]), “−” in the assay on COUP-TFII (setting [3]) and “+” in the assay on COUP-TFII (setting [4]). The “differentiation of hiPSC into atrial cardiomyocytes (immunoreactive signal for COUP-TF1 and/or COUP-TF1)” value in the assay with hiPSC (added 2 days (48 hours) after initiating step a, duration 12 days (group 4)) was “low immunoreactive signal”; in the assay with hiPSC (added 3 days (72 hours) after initiating step a, duration 24 hours (group 3)) it was “marginal or no immunoreactive signal”. Moreover, the “differentiation of hiPSC into cardiomyocytes having an atrial phenotype (immunoreactive signal for COUP-TF1 and/or COUP-TF1)” value in the assay on hiPSC (added 2 days (48 hours) after initiating step a, duration 48 hours (group 1)) was “strongest immunoreactive signal”; in the assay with hiPSC (added 3 days (72 hours) after initiating step a, duration 24 hours (group 2)), “moderate immunoreactive signal”. For the same compound, the “intensity of the immunoreactivity signal for COUP-TFI” value is “++” with COUP-TFI (setting [1]), “+” in the assay with COUP-TFI (setting [2]), “−” with COUP-TFI (setting [3]) and “+/−” in the assay on COUP-TFI (setting [4]).
